Measurements published in ChEMBL document CHEMBL1201862, “PubChem BioAssay data set” (2004).
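Values below derive from 48-hour exposures of cells grown in 96-well plates, with endpoints linearly interpolated between the two concentrations bracketing the appropriate inhibition level. GI50: concentration for 50% inhibition of growth.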 Active and inactive are the calls of the source. Cut-off read from the data, not from the text of the source: active = GI50 up to about 1.1 µM and inactive = higher.

How the values were obtained:
Assay in all cases: NCI-60 cell line screen, 48 h
SF-268 = test system: SF-268
SF-539 = test system: SF-539
NCI-H23 = test system: NCI-H23
U-251 = test system: U-251
SR = test system: SR
TK-10 = test system: TK-10
NCI-H226 = test system: NCI-H226
MOLT-4 = test system: MOLT-4
MDA-MB-435 = test system: MDA-MB-435
ACHN = test system: ACHN
NCI-H522 = test system: NCI-H522
MDA-N = test system: MDA-N
Malme-3M = test system: Malme-3M
UACC-257 = test system: UACC-257
CAKI-1 = test system: CAKI-1
HOP-92 = test system: HOP-92
OVCAR-5 = test system: OVCAR-5
LOX IMVI = test system: LOX IMVI
SF-295 = test system: SF-295
COLO 205 = test system: COLO 205

## Cc1ccc(S(=O)(=O)N2C[C@@H]3CC[C@]4(CO[Si](C)(C)C(C)(C)C)N[C@@H](c5ccccc5)[C@H]2[C@H]34)cc1
SF-268
  GI50: 45.7 µM (inactive)
SF-539
  GI50: 32.4 µM (inactive)
NCI-H23
  GI50: 11.4 µM (inactive)
U-251
  GI50: 46.5 µM (inactive)
SR
  GI50: 16.2 µM (inactive)
TK-10
  GI50: 38.5 µM (inactive)
NCI-H226
  GI50: 14.4 µM (inactive)
MOLT-4
  GI50: 19 µM (inactive)
MDA-MB-435
  GI50: 39.2 µM (inactive)
ACHN
  GI50: 37.2 µM (inactive)
NCI-H522
  GI50: 11.6 µM (inactive)
MDA-N
  GI50: 29.2 µM (inactive)
Malme-3M
  GI50: 18.6 µM (inactive)
UACC-257
  GI50: 23.9 µM (inactive)
CAKI-1
  GI50: 27.2 µM (inactive)
HOP-92
  GI50: 3.44 µM (inactive)
OVCAR-5
  GI50: 77.8 µM (inactive)
LOX IMVI
  GI50: 28 µM (inactive)
SF-295
  GI50: 24.9 µM (inactive)
COLO 205
  GI50: 17.6 µM (inactive)

## Cc1cc(C)c2c(=O)cc(-c3ccccc3)[nH]c2c1
SF-268
  GI50: 7.82 µM (inactive)
SF-539
  GI50: 2.31 µM (inactive)
NCI-H23
  GI50: 2.66 µM (inactive)
U-251
  GI50: 3.25 µM (inactive)
SR
  GI50: 2.01 µM (inactive)
TK-10
  GI50: 7.05 µM (inactive)
NCI-H226
  GI50: 9.66 µM (inactive)
MOLT-4
  GI50: 2.96 µM (inactive)
MDA-MB-435
  GI50: 0.211 µM (active)
ACHN
  GI50: 4.65 µM (inactive)
NCI-H522
  GI50: 0.755 µM (active)
MDA-N
  GI50: 0.284 µM (active)
Malme-3M
  GI50: 2.71 µM (inactive)
UACC-257
  GI50: 21.7 µM (inactive)
CAKI-1
  GI50: 3.29 µM (inactive)
HOP-92
  GI50: 19.1 µM (inactive)
OVCAR-5
  GI50: 10.4 µM (inactive)
LOX IMVI
  GI50: 2.69 µM (inactive)
SF-295
  GI50: 3.63 µM (inactive)
COLO 205
  GI50: 1.17 µM (inactive)

## O=c1oc2ccccc2cc1-c1nc2ccccc2c(=O)[nH]1
SF-268
  GI50: > 100 µM (inactive)
SF-539
  GI50: > 100 µM (inactive)
U-251
  GI50: 50.4 µM (inactive)
SR
  GI50: > 100 µM (inactive)
TK-10
  GI50: > 100 µM (inactive)
NCI-H226
  GI50: > 100 µM (inactive)
MOLT-4
  GI50: > 100 µM (inactive)
MDA-MB-435
  GI50: > 100 µM (inactive)
ACHN
  GI50: 90.8 µM (inactive)
NCI-H522
  GI50: > 100 µM (inactive)
MDA-N
  GI50: > 100 µM (inactive)
Malme-3M
  GI50: > 100 µM (inactive)
UACC-257
  GI50: > 100 µM (inactive)
CAKI-1
  GI50: > 100 µM (inactive)
HOP-92
  GI50: > 100 µM (inactive)
OVCAR-5
  GI50: > 100 µM (inactive)
LOX IMVI
  GI50: > 100 µM (inactive)
SF-295
  GI50: 54 µM (inactive)
COLO 205
  GI50: > 100 µM (inactive)

## CC[C@@]1(O)C(=O)OCc2c1cc1n(c2=O)Cc2c-1nc1ccccc1c2/C=N\NC(=O)C(N)CC(C)C (stereo partly drawn)
SF-268
  GI50: < 0.01 µM (active)
SF-539
  GI50: < 0.01 µM (active)
NCI-H23
  GI50: < 0.01 µM (active)
U-251
  GI50: < 0.01 µM (active)
SR
  GI50: < 0.01 µM (active)
TK-10
  GI50: 3.12 µM (inactive)
NCI-H226
  GI50: 0.0277 µM (active)
MOLT-4
  GI50: < 0.01 µM (active)
MDA-MB-435
  GI50: 0.143 µM (active)
ACHN
  GI50: < 0.01 µM (active)
NCI-H522
  GI50: < 0.0175 µM (active)
MDA-N
  GI50: 0.171 µM (active)
Malme-3M
  GI50: 0.107 µM (active)
UACC-257
  GI50: 0.0536 µM (active)
CAKI-1
  GI50: < 0.01 µM (active)
HOP-92
  GI50: 0.0815 µM (active)
OVCAR-5
  GI50: 0.726 µM (active)
LOX IMVI
  GI50: < 0.01 µM (active)
SF-295
  GI50: < 0.01 µM (active)
COLO 205
  GI50: 0.708 µM (active)

## CC(CC(=O)CO[C@H]1[C@H](O)[C@@H](O)[C@@H](O)[C@@H]2NC(=O)c3c(cc4c(c3O)OCO4)[C@H]21)OC1OC(CO)C(O)C(O)C1O (stereo partly drawn)
SF-268
  GI50: 0.367 µM (active)
SF-539
  GI50: 0.419 µM (active)
NCI-H23
  GI50: 0.441 µM (active)
U-251
  GI50: 0.239 µM (active)
SR
  GI50: 0.325 µM (active)
TK-10
  GI50: 0.408 µM (active)
NCI-H226
  GI50: 0.522 µM (active)
MOLT-4
  GI50: 0.25 µM (active)
MDA-MB-435
  GI50: 0.392 µM (active)
ACHN
  GI50: 0.444 µM (active)
NCI-H522
  GI50: 0.311 µM (active)
MDA-N
  GI50: 0.508 µM (active)
Malme-3M
  GI50: 0.488 µM (active)
UACC-257
  GI50: 0.594 µM (active)
CAKI-1
  GI50: 0.857 µM (active)
HOP-92
  GI50: 0.51 µM (active)
OVCAR-5
  GI50: 1.26 µM (inactive)
LOX IMVI
  GI50: 0.255 µM (active)
SF-295
  GI50: 1.12 µM (active)
COLO 205
  GI50: 0.272 µM (active)

## COc1ccc(N2CN3OC(=O)N(c4ccc(OC)cc4)[C@@]3(c3ccccc3)C2)cc1
SF-268
  GI50: 73.6 µM (inactive)
SF-539
  GI50: 17 µM (inactive)
NCI-H23
  GI50: 23.6 µM (inactive)
U-251
  GI50: 11.9 µM (inactive)
SR
  GI50: 2.79 µM (inactive)
TK-10
  GI50: 30.8 µM (inactive)
NCI-H226
  GI50: 47.6 µM (inactive)
MOLT-4
  GI50: 7.23 µM (inactive)
MDA-MB-435
  GI50: 2.4 µM (inactive)
ACHN
  GI50: 61.9 µM (inactive)
NCI-H522
  GI50: 10.5 µM (inactive)
MDA-N
  GI50: 3.29 µM (inactive)
Malme-3M
  GI50: 10.8 µM (inactive)
UACC-257
  GI50: 26.5 µM (inactive)
CAKI-1
  GI50: 19.1 µM (inactive)
HOP-92
  GI50: 15.9 µM (inactive)
OVCAR-5
  GI50: 54.6 µM (inactive)
LOX IMVI
  GI50: 23 µM (inactive)
SF-295
  GI50: 16.5 µM (inactive)
COLO 205
  GI50: 13.4 µM (inactive)

## O=C1CCCCN1C(=O)c1ccc([N+](=O)[O-])cc1
SF-268
  GI50: > 100 µM (inactive)
SF-539
  GI50: > 100 µM (inactive)
NCI-H23
  GI50: > 100 µM (inactive)
U-251
  GI50: > 100 µM (inactive)
SR
  GI50: > 100 µM (inactive)
TK-10
  GI50: > 100 µM (inactive)
NCI-H226
  GI50: > 100 µM (inactive)
MOLT-4
  GI50: > 100 µM (inactive)
MDA-MB-435
  GI50: > 100 µM (inactive)
ACHN
  GI50: > 100 µM (inactive)
NCI-H522
  GI50: > 100 µM (inactive)
MDA-N
  GI50: 57.7 µM (inactive)
Malme-3M
  GI50: > 100 µM (inactive)
UACC-257
  GI50: > 100 µM (inactive)
CAKI-1
  GI50: > 100 µM (inactive)
HOP-92
  GI50: > 100 µM (inactive)
OVCAR-5
  GI50: > 100 µM (inactive)
LOX IMVI
  GI50: > 100 µM (inactive)
SF-295
  GI50: > 100 µM (inactive)

## O=[N+]([O-])c1cccc2nccc(NCCN3CCOCC3)c12
SF-268
  GI50: 20.5 µM (inactive)
SF-539
  GI50: 20.3 µM (inactive)
NCI-H23
  GI50: 11.7 µM (inactive)
U-251
  GI50: 22.2 µM (inactive)
SR
  GI50: 10.1 µM (inactive)
TK-10
  GI50: 23.7 µM (inactive)
NCI-H226
  GI50: 10.2 µM (inactive)
MOLT-4
  GI50: 8.43 µM (inactive)
MDA-MB-435
  GI50: 22.9 µM (inactive)
ACHN
  GI50: 22.4 µM (inactive)
NCI-H522
  GI50: 3.95 µM (inactive)
MDA-N
  GI50: 16.7 µM (inactive)
Malme-3M
  GI50: 13.8 µM (inactive)
UACC-257
  GI50: 10 µM (inactive)
CAKI-1
  GI50: 2.6 µM (inactive)
HOP-92
  GI50: 33.2 µM (inactive)
OVCAR-5
  GI50: 21.4 µM (inactive)
LOX IMVI
  GI50: 13.4 µM (inactive)
SF-295
  GI50: 13.9 µM (inactive)
COLO 205
  GI50: 19.6 µM (inactive)

## CC1OC(=O)C2CC3CCCCC3C(/C=C/C3CCCC(C)N3C)C12 (stereo not drawn)
SF-268
  GI50: > 100 µM (inactive)
SF-539
  GI50: > 100 µM (inactive)
NCI-H23
  GI50: > 100 µM (inactive)
U-251
  GI50: > 100 µM (inactive)
SR
  GI50: > 100 µM (inactive)
TK-10
  GI50: > 100 µM (inactive)
NCI-H226
  GI50: > 100 µM (inactive)
MOLT-4
  GI50: > 100 µM (inactive)
MDA-MB-435
  GI50: > 100 µM (inactive)
ACHN
  GI50: > 100 µM (inactive)
NCI-H522
  GI50: > 100 µM (inactive)
MDA-N
  GI50: > 100 µM (inactive)
Malme-3M
  GI50: > 100 µM (inactive)
UACC-257
  GI50: > 100 µM (inactive)
CAKI-1
  GI50: > 100 µM (inactive)
HOP-92
  GI50: > 100 µM (inactive)
OVCAR-5
  GI50: > 100 µM (inactive)
LOX IMVI
  GI50: > 100 µM (inactive)
SF-295
  GI50: 63.1 µM (inactive)
COLO 205
  GI50: > 100 µM (inactive)

## CCNc1cc2c3c(c1)CCCN3CCC2
SF-268
  GI50: 16.9 µM (inactive)
SF-539
  GI50: 20.9 µM (inactive)
NCI-H23
  GI50: 6.31 µM (inactive)
U-251
  GI50: 12.3 µM (inactive)
SR
  GI50: 4.22 µM (inactive)
TK-10
  GI50: 31.8 µM (inactive)
NCI-H226
  GI50: 20.4 µM (inactive)
MOLT-4
  GI50: 16.9 µM (inactive)
MDA-MB-435
  GI50: 3.44 µM (inactive)
ACHN
  GI50: 19.6 µM (inactive)
NCI-H522
  GI50: 21 µM (inactive)
MDA-N
  GI50: 3.1 µM (inactive)
Malme-3M
  GI50: 19.3 µM (inactive)
UACC-257
  GI50: 19.7 µM (inactive)
CAKI-1
  GI50: 31.6 µM (inactive)
HOP-92
  GI50: 12.6 µM (inactive)
OVCAR-5
  GI50: 21.6 µM (inactive)
LOX IMVI
  GI50: 3.1 µM (inactive)
SF-295
  GI50: 18.2 µM (inactive)
COLO 205
  GI50: 12.1 µM (inactive)
